Where two headings read alike, the source gives them in different places.
System: lower esophageal sphincter (LES)
Assay: Determination of LES pressure in the anesthetized dog
Type: in vivo, dogs
Details: Canis lupus familiaris, mean ED20 = dose which increases LES pressure 20 mm Hg (N>=3)
Procedure: Methods for Determination of LES Pressure in the Anesthetized Dog
Mongrel or beagle dogs, male and female, are anesthetized using sodium pentobarbital (35.0 mg/kg., i.v.). Sodium pentobarbital is then continuously infused (approximately 6.0 mg/kg/hr) to maintain deep anesthesia. Blood pressure is monitored via a catheter surgically implanted into the femoral artery and attached to a Gould-Statham P23ID transducer. A catheter is also implanted into the femoral vein to administer test drugs. Respiration is maintained by an endotracheal tube attached to a respirator. A continuously perfused manometric catheter system including a Dent sleeve to measure sphincter pressure (Dent, Gastroenterology 71:263-267, 1976) is inserted into the esophagus and positioned so that intraluminal pressure is recorded from the body of the esophagus, the lower esophageal sphincter (LES) and the fundus of the stomach. The Dent sleeve catheter is perfused at a rate of 0.5 ml of water per minute for each lumen of the catheter by using an Arndorfer Hydraulic Capillary Infusion System. A cannula is implanted into the gastric antrum to allow drainage of the perfusate solution and prevent intestinal distension. Continuous tracings of esophageal, LES and fundus pressure are monitored on a Grass Polygraph (Model 7D). Correct positioning of the Dent sleeve is verified by noting a high pressure zone at the LES and by administration of an intravenous dose of 5-HT (usually 10-15 mcg/kg) which contracts the LES while having little or no recordable effect on either the body of the esophagus or the fundus. After verification of placement of the sleeve, the animal is allowed to stabilize for approximately 30 minutes.
Compounds are administered intravenously or intraduodenally. In most cases, succeeding doses of the same or different compounds are given only after the LES pressure has returned to approximate pre-dosing baseline values. In all cases, the magnitude of change in LES pressure is determined from the baseline pressure immediately prior to each treatment to the maximum pressure during treatment. Since the compounds used usually produce an immediate effect on LES pressure, no pretreatment time prior to measurement is necessary during this testing.
Direct assay techniques are used to estimate an Effective Dose 20 (ED₂₀) for the test compound in individual animals. The mean ED₂₀ and 95% confidence limits are determined using the individual ED₂₀ values from a group of animals (N= ≧3) that received the same treatment. The ED₂₀ is the dose which increases LES pressure 20 mm Hg.

[1] = intraduodenal, read-out: ED20 in mcg/kg i.d.
[2] = intravenous, read-out: ED20 in mcg/kg i.v.

Compound: CN1CCc2ccc(O)c(Sc3ccccc3)c2CC1 [Compound 1, 7-hydroxy-3-methyl-6-phenylthio-2,3 4,5-tetrahydro-1H-3-benzazepine]
- ED (20 mm Hg) [1]: 263 µg/kg
- ED (20 mm Hg) [2]: 63 µg/kg

Compound: CN1CCc2cc(Sc3ccccc3)c([N+](=O)[O-])cc2CC1 [Compound 5, 3-methyl-7-nitro-8-phenylthio-2,3,4,5-tetrahydro-1H-3-benzazepine]
- ED (20 mm Hg) [2]: 1200 µg/kg

Compound: Oc1ccc2c(c1)CCNCC2 [Compound 4, 7-hydroxy-2,3,4,5-tetrahydro-1H-3-benzazepine]
- ED (20 mm Hg) [2]: 348 µg/kg

Compound: CN1CCc2cc(O)c(Sc3ccccc3)cc2CC1 [Compound 2, 8-hydroxy-3-methyl-7-phenylthio-2,3 4,5-tetrahydro-1H-3-benzazepine]
- ED (20 mm Hg) [1]: ~1000 µg/kg
- ED (20 mm Hg) [2]: 14 µg/kg

Compound: CSc1ccc2c(c1)CCN(C)CC2 [Compound 3, 3-methyl-7-methylthio-2,3,4,5-tetra-hydro-1H-3-benzazepine]
- ED (20 mm Hg) [1]: 236 µg/kg
- ED (20 mm Hg) [2]: 273 µg/kg

— EP0285287A2, “3-Benzazepine compounds for use in treating gastrointestinal motility disorders” (SMITHKLINE BECKMAN CORPORATION, priority 1987, dated 1988)
